In ChEMBL document CHEMBL1137045, “Quinazolinone-based fungal efflux pump inhibitors. Part 1: Discovery of an (N-methylpiperazine)-containing derivative with activity in clinically relevant Candida spp” (Bioorg Med Chem Lett, 2004) one finds MPC8, IC50 and MIC data, which are given here for eight compounds.

In experiment [1] the test system is Candida albicans. The experiment in a line: In vitro minimum potentiation concentration required to achieve an 8-fold reduction in fluconazole MIC against Candida albicans strain YEM15 (overexpressing both CDR1 and CDR2). It is filed as functional.
Experiment [2] has as its system Candida albicans. The experiment in a line: In vitro concentration to inhibit Candida albicans CDR1 transporter gene over-expressed in Saccharomyces cerevisiae strain YEM172. Format: functional, organism-based.
The test system of experiment [3] is Nakaseomyces glabratus. The experiment in a line: In vitro concentration to inhibit Candida glabrata CgCDR1 transporter gene over-expressed in Saccharomyces cerevisiae strain Y170. It is filed as functional, organism-based.
For experiment [4], the system named is Candida albicans. The experiment in a line: In vitro concentration to inhibit Candida albicans CDR2 transporter gene over-expressed in Saccharomyces cerevisiae strain YEM171. It is filed as functional, organism-based.
For experiment [5], the system named is Nakaseomyces glabratus. The experiment in a line: In vitro minimum potentiation concentration required to achieve an 8-fold reduction in fluconazole MIC against Candida glabrata strain YEM19 (overexpressing both […]). Format: functional.
The subject of experiment [6] is Nakaseomyces glabratus. The experiment in a line: In vitro concentration to inhibit Candida glabrata CgCDR2 transporter gene over-expressed in Saccharomyces cerevisiae strain Y218. It is filed as functional, organism-based.
Experiment [7] deals with Saccharomyces cerevisiae. The experiment in a line: In vitro concentration required to inhibit 80% growth of Saccharomyces cerevisiae strain YEM139 (PDR5 deleted) after 48 h. Format: functional.
For experiment [8], the system named is Saccharomyces cerevisiae. Description: In vitro concentration required to inhibit 80% growth of Saccharomyces cerevisiae strain YEM172 (CDR1 over-expressed) after 48 h. It is filed as functional.
Experiment [9] relates to Saccharomyces cerevisiae. The experiment in a line: In vitro concentration required to inhibit 80% growth of Saccharomyces cerevisiae strain Y170 (CgCDR1 over-expressed) after 48 h. Format: functional.
Experiment [10] has as its system Saccharomyces cerevisiae. The experiment in a line: In vitro concentration required to inhibit 80% growth of Saccharomyces cerevisiae strain YEM171 (CDR2 over-expressed) after 48 h. It is filed as functional.
Experiment [11] concerns Saccharomyces cerevisiae. Description: In vitro concentration required to inhibit 80% growth of Saccharomyces cerevisiae strain Y218 (CgCDR2 over-expressed) after 48 h. It is filed as functional.

Values after ≈ are worked out from the molar mass of the structure shown. Where only a bound is given, the exact number is not on record here.

The IC50 is the concentration that gives 50% inhibition. A high value points to weaker potency. `CCOC(=O)CCn1c(C(C)N(C(=O)Nc2cccc(Cl)c2)c2ccc(OC)cc2OC)nc2ccccc2c1=O` (configuration not stated): the MPC8 in experiment [1] was 1 µg/mL; in experiment [5], over 32 µg/mL. Also, the IC50 was 0.5 mg/L (≈ 0.863 µM) in experiment [2], over 32 mg/L in experiment [3], over 32 mg/L in [4] and over 32 mg/L in experiment [6].

As to `COc1ccc(N(C(=O)Nc2cccc(Cl)c2)[C@H](C)c2nc3ccccc3c(=O)n2N2CCN(C)CC2)c(OC)c1`, the MPC8 in experiment [1] and in experiment [5] was over 32 µg/mL in each case. The IC50 in [2], in experiment [3], in experiment [4] and in experiment [6] was over 32 mg/L each time.

Take `COc1ccc(N(Cc2nc3ccccc3c(=O)n2N2CCN(C)CC2)C(=O)Nc2cccc(Cl)c2)c(OC)c1`: the MPC8 in [1] and in [5] was 16 µg/mL each time. Also, the IC50 in experiment [2] was 32 mg/L (≈ 56.8 µM); in [3], over 32 mg/L; in experiment [4], over 32 mg/L; in experiment [6] it was 32 mg/L (≈ 56.8 µM).

Regarding `COc1ccc(N(C(=O)Nc2cccc(Cl)c2)C(C)c2nc3ccccc3c(=O)n2Cc2ccccc2)c(OC)c1` (configuration not stated), the MPC8 in experiment [1] is 0.5 µg/mL; in experiment [5] it was over 32 µg/mL. The IC50 was 0.12 mg/L (≈ 0.211 µM) in experiment [2], over 32 mg/L in [3], over 32 mg/L in [4] and over 32 mg/L in experiment [6].

As usually defined, the MIC is the least concentration at which growth counts as inhibited. High values mean weaker potency, low ones greater potency. In the case of `OC(Cn1cncn1)(Cn1cncn1)c1ccc(F)cc1F` [FLUCONAZOLE], the MIC in [7] stood at 0.5 mg/L (≈ 1.63 µM); in experiment [8] it was 128 mg/L (≈ 418 µM); in experiment [9], 128 mg/L (≈ 418 µM); in experiment [10], 8 mg/L (≈ 26.1 µM); in [11] it was 2 mg/L (≈ 6.53 µM).

For the compound `COc1ccc(N(C(=O)Nc2cccc(Cl)c2)C(C)(C)c2nc3ccccc3c(=O)n2N2CCN(C)CC2)c(OC)c1`, the MPC8 in experiment [1] and in [5] was over 32 µg/mL in each case. Besides, the IC50 in [2], in experiment [3], in experiment [4] and in experiment [6] was over 32 mg/L throughout.

In the case of `COc1ccc(N(C(=O)Nc2cccc(Cl)c2)[C@@H](C)c2nc3ccccc3c(=O)n2N2CCN(C)CC2)c(OC)c1`, the MPC8 in experiment [1] and in [5] was 1 µg/mL throughout. The IC50 was 2 mg/L (≈ 3.47 µM) in experiment [2], 4 mg/L (≈ 6.93 µM) in [3], over 32 mg/L in experiment [4] and over 32 mg/L in experiment [6].

As for `COc1ccc(N(C(=O)Nc2cccc(Cl)c2)C(C)c2nc3ccccc3c(=O)n2N2CCN(C)CC2)c(OC)c1` (configuration not stated), the MPC8 was 1 µg/mL in [1] and 4 µg/mL in [5]. Further, the IC50 in experiment [2] was 4 mg/L (≈ 6.93 µM); in experiment [3], 8 mg/L (≈ 13.9 µM); in [4] it was over 16 mg/L; in experiment [6], over 16 mg/L.
